From patent US7049331B2, “1,2,4-thiadiazole derivatives as melanocortin receptor modulators” (Ortho-McNeil Pharmaceutical, Inc., priority 2001, dated 2006)
Where two headings read alike, the source gives them in different places.

What was measured:
[1] = molecular target: T1, melanocortin MC-4 receptor (Homo sapiens, UniProt P32245); test: MC-4 receptor binding (Filtration); conditions: Filtration; for IC50: read-out: IC50 MC-4 (μM) (Filtration)
T1 construct: purchased Receptor Biology Inc
Method: The procedures described above for the melanocortin MC-4 receptor were repeated for the melanocortin MC-3 receptor. Following the procedures described, representative compounds of the present invention were tested for binding in the MC-4 and/or MC-3 assay, as listed in Table 4.

[2] = molecular target: T1, melanocortin MC-4 receptor; test: Melanocortin MC-4 Receptor Binding Assay (SPA)
Method: Melanocortin MC-4 Receptor Binding Assay Melanocortin [MC-4]-membrane [purchased from Receptor Biology Inc] was coupled to wheat germ agglutinin coated polyvinyl toluene-Scintillation Proximity Assay beads [purchased from Amersham Pharmacia Inc.] for 30 min at 25° C. Into each well of a 96-well Opti plate [purchased from Packard, Calif.], 2.5 μg of membrane and 0.25 mg of beads were mixed in a volume of 100 μL media. […] Test compounds (1.5 μL) at 1 mM in 30% DMSO-50 mM HEPES, pH 7.4 buffer was added to separate wells on the plate. Radioactive ligand ^125I-NDP-melanocyte stimulating hormone [NEN, 2000Ci/mmol] was added to each well (48.5 μL per well, 40 pM final concentration). The plate was then sealed and let stand for 16 hr at 25° C. NDP-Melanocyte stimulating hormone peptide and α-melanocyte stimulating hormone peptide [purchased from Palomar Research Inc, 1 μM] were used as reference inhibitor compounds to define non-specific binding (N). Total binding (T) was defined using 30% DMSO-50 mM HEPES, pH 7.4 buffer. Bound radioactivity for each well (Y), measured at counts per minute (cpm) was measured in a TopCount [Packard, Calif.]. Percent inhibition was calculated as: […] The procedures described above for the melanocortin MC-4 receptor were repeated for the melanocortin MC-3 receptor. Following the procedures described, representative compounds of the present invention were tested for binding in the MC-4 and/or MC-3 assay, as listed in Table 4.

Food-Deprived Rats = test: Rodent Feeding: Food Intake in Food-Deprived Rats (MC-4); format: in vivo, rat; conditions: for change in vivo at 10 mg/kg / change in vivo at 30 mg/kg: Rattus norvegicus; for change in vivo at 30 mg/kg: po
From the text: Rodent Feeding: Food Intake in Food-Deprived Rats (MC-4)
Male Long-Evans rats (180–200 grams) were housed individually and maintained on a once-a-day feeding schedule (i.e.10 a.m. until 4 p.m.) for five days following quarantine to allow the animals to acclimate to feeding on powdered chow (#5002 PMI Certified Rodent Meal) during the allotted time. The chow was made available in an open jar, anchored in the cage by a wire, with a metal follower covering the food to minimize spillage. Water was available ad-libitum.
Animals were fasted for 18 hours prior to testing. At the end of the fasting period, animals were administered either a test compound or vehicle. Vehicle and test compound were administered either orally (5 mL/kg) 60 minutes prior to the experiment, subcutaneously (1 mL/kg) 30 minutes prior to the experiment, or intraperitoneally (1 mL/kg) 30 minutes prior to the experiment. Test compounds were administered orally as a suspension in aqueous 0.5% methylcellulose-0.4% Tween 80, or intraperitoneally as a solution or suspension in PEG 200; compound concentrations typically ranged from 1 mg/kg to 100 mg/kg, preferably from 10–30 mg/kg. Food intake was measured at 2, 4, and 6 hours after administration by weighing the special jar containing the food before the experiment and at the specified times. Upon completion of the experiment, all animals were given a one-week washout period before re-testing.
Following the procedure described above, select compounds of the present invention were tested to measure the effect on food intake in fasted rats, as listed in Table 5 and 6.

Hippocampal Cells = test: Neurite Cell Outgrowth Assay, hippocampal cells; format: cell-based; conditions: Rattus norvegicus; 50 nM; percent change over the vehicle response; NA = no change/not active
From the text: (§1) Dissociated hippocampal and cortical cell cultures were established from embryonic day 18 rat fetuses as described by Mattson, M. P., Barger, S. W., Begley, J, and Mark, R. J., Methods Cell Biol., 1994, 46:[…]. Briefly, fetuses were removed via cesarean section from pregnant moms (Sprague-Dawley) and anesthetized with halothane according to the AVMA Panel on Euthanasia. Pups were decapitated and the brains were removed and placed in HEPES-buffered Hank's Balanced Salt solution (HBSS; Gibco). The hippocampi and cortices were dissected out and pooled according to tissue-type. Tissue was trypsinized for 15 min (1 mg/ml trypsin-HBSS; Worthington), rinsed with fresh HBSS, incubated in trypsin inhibitor (1 mg/ml; Sigma) for 5 min, rinsed again with fresh HBSS and then triturated in 1 ml fresh HBSS with a fire-polished glass pipette. Dissociated cells were seeded at 30,000 cells/well onto poly-D-lysine coated 96-well plates (Collaborative BioScience). Each well contained 100 μl of Eagle's Minimal Essential Media (MEM; Gibco) supplemented with 26 mM NaHCO3 (Sigma), 56 mM glucose (Sigma), 15 mM KCl (Sigma), 1 mM sodium pyruvate (Sigma), 1.1 mM L-glutamine (Sigma), 10% (v/v) heat-inactivated fetal bovine serum (Hyclone), and 0.001% gentamicin sulfate (Sigma) (pH 7.4). Cells were allowed to attach for 24 h in a humidified 37° C. 5% CO2 incubator before experimental treatment. The culture media was aspirated and exchanged with fresh media every 3 days.
(§2) Twenty-four hours after plating, cultures were treated with vehicle (PBS+0.1% BSA), alpha-melanocyte stimulating hormone (α-MSH) or test compound (diluted in DPBS). Each treatment condition was run in quadruplicate. On the third day in culture, the media was aspirated off and replaced with fresh media and test compound. At one week in culture, the cells were fixed with 10% phosphate-buffered formalin for 15 min, then rinsed with DPBS (Sigma) and placed in blocking serum for 30 min (horse serum; 1:50 dilution in DPBS; Vector Labs). The cultures were rinsed again with DPBS and then incubated in primary antibody for 2 hr (microtubule-associated protein-2 (MAP-2) is a selective marker for dendritic processes; anti-mouse monoclonal (Chemicon); 1:1000 dilution of MAP-2 in antibody diluent (Zymed)). Negative control wells were incubated in antibody diluent alone. Background signal was determined by blank wells (cell-free) incubated with or without antibody. Cultures were rinsed again with DPBS and then placed in fluorescein for 1 hr (FITC; anti-mouse IgG; rat adsorbed; 1:50 dilution in DPBS; Vector Labs). Cultures were rinsed a final time with DPBS and the plates were then read on a Cytofluor 4000 fluorescence plate reader. Neurite outgrowth was expressed as percent change from control (vehicle).
(§3) The data are expressed as percent change over the vehicle response. All compounds were screened at 50 nM. The abbreviation NA indicates no change/not active; the abbreviation ND indicates a compound not tested/response not determined.

Cortical Cells = test: Neurite Cell Outgrowth Assay, cortical cells; format: cell-based; conditions: Rattus norvegicus; 50 nM; percent change over the vehicle response; NA = no change/not active
From the text: as §1, §2, §3

T1 sequence (P32245 whole entry): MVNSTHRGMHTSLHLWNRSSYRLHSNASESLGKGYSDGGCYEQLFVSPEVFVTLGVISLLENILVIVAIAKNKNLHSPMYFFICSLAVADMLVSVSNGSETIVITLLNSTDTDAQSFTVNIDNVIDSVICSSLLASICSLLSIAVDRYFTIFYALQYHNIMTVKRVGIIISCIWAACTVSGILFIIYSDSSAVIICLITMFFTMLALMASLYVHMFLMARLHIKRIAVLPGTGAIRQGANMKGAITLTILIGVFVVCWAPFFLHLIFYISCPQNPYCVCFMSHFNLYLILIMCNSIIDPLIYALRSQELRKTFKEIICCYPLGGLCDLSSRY

| Compound | IC50 [1] | IC50 [2] | change in vivo at 10 mg/kg (Food-Deprived Rats; ip, 2 h, ip, read-out: Change in Food Intake 0–2 hrs (%)) | change in vivo at 10 mg/kg (Food-Deprived Rats; ip, 6 h, ip, read-out: Change in Food Intake 2–6 hrs (%)) | change in vivo at 30 mg/kg (Food-Deprived Rats; 2 h, read-out: Change in Food Intake 0–2 hrs (%)) | change in vivo at 30 mg/kg (Food-Deprived Rats; 6 h, read-out: Change in Food Intake 2–6 hrs (%)) | Food Intake 2–6 hrs (Food-Deprived Rats; fasted rats, 10μ, ip) | Food Intake 0–2 hrs (Food-Deprived Rats; fasted rats, ip) | activation at 0.05 µM (Hippocampal Cells) | activation at 0.05 µM (Cortical Cells) | IC50 MC-4 (μM) (Filtration) [1] |
| --- | --- | --- | --- | --- | --- | --- | --- | --- | --- | --- | --- |
| COc1ccc(Nc2nc(-c3ccccc3)[n+](-c3ccc(C)cc3)s2)cc1 [Compound 1] | 1.1 µM | 174 nM | -11.6% | -37% | -21.2% | -6.7% | 8.43 g | 7.29 g | 6% | – | – |
| Cc1ccc(-[n+]2sc(Nc3ccc(Cl)cc3)nc2-c2ccccc2)cc1 [Compound 6] | 2.5 µM | 293 nM | – | – | – | – | – | – | 23% | 24% | – |
| Cc1ccc(-n2s/c(=N/c3ccccc3)nc2-c2ccccc2)cc1 [Compound 82] | 1.5 µM | 826 nM | – | – | – | – | – | – | 14% | 15% | – |
| Cc1ccc(Nc2nc(-c3ccccc3)[n+](-c3ccc(C)cc3)s2)cc1 [Compound 4] | – | 297 nM | – | – | – | – | – | – | 20% | 21% | inactive |
| Cc1ccc(-[n+]2sc(Nc3ccccc3C)nc2-c2ccccc2)cc1 [Compound 5] | 1.3 µM | 207 nM | – | – | – | – | – | – | 28% | 9% | – |
| COc1ccccc1Nc1nc(-c2ccccc2)[n+](-c2ccc(C)cc2)s1 [Compound 3] | 0.7 µM | 159 nM | – | – | – | – | – | – | 17% | 23% | – |
| Cc1ccc(Nc2nc(-c3ccccc3)[n+](-c3ccccc3C)s2)cc1 [Compound 11] | 2.4 µM | 243 nM | – | – | – | – | – | – | 9% | 10% | – |
